# In patent US11098040B2, “Compounds and methods of use” (Ferro Therapeutics, Inc., priority 2018, dated 2021):
# Where two headings read alike, the source gives them in different places.
# Columns and labels:
# KP4 = assay: Cell viability assay (CellTiter Glo), pancreatic ductal adenocarcinoma KP4; type: cell-based, human; details: Homo sapiens
# Description: (§1) Cell viability assay was performed to assess the potency of the compounds in human cancer cell lines KP4 (pancreatic ductal adenocarcinoma), MiaPaCa-2 (pancreatic carcinoma), AsPC-1 (pancreatic adenocarcinoma, ascites), 143B (osteosarcoma), and SJSA-1 (osteosarcoma). Selected compounds were also assayed in a human breast epithelial cell line MCF-10A, a nontumorigenic cell line as a control to assess differential activity. Cells at a density of 500-5,000 cells/well were seeded in 96-well plates and incubated at 37° C. overnight. A series of 9 different concentrations of compound stocks (500×) were created by 3-fold serial dilution in DMSO. These compounds were further diluted in culture media and then added to cells so that the final DMSO concentration was equal to 0.25% or less. After 96 hours of incubation, 50 μL of CellTiter Glo reagent (Promega) was added to each well and luminescence was measured after 10 minutes using EnVision (PerkinElmer). Compounds titrated from top concentration of up to 30 μM. The select compounds were tested initially from 30 μM as the top concentration in duplicates (range of 4.6 nM-30 μM). […] Luminescence from cells treated with DMSO alone was set as Max and % of inhibition was calculated as follows: Inhibition %=(Max-Sample value)/Max*100. Data was analyzed using XL-fit software (ID Business Solutions Ltd.). IC50, relative IC50, or % of top inhibition was calculated.
# as §1, with “in” for “in human”, “line” for “lines”, “adenocarcinoma).” for “adenocarcinoma), MiaPaCa-2 (pancreatic carcinoma), AsPC-1 (pancreatic adenocarcinoma, ascites), 143B (osteosarcoma), and SJSA-1 (osteosarcoma). Selected compounds were also assayed in a human breast epithelial cell line MCF-10A, a nontumorigenic cell line as a control to assess differential activity.”, “1,000-10,000” for “500-5,000”, “All” for “Compounds titrated from top concentration of up to 30 μM. The select”
# (§2) The results of the assay on stability in blood and IC50 values for pancreatic cancer cell line KP4 are given below in Table 24.
# [1] = Whole blood stability, mouse; type: in vitro ADME
# From the text: as §2
# [2] = Whole blood stability, human; type: in vitro ADME
# From the text: as §2
# [3] = KP-4, 96 h, pancreatic cancer cell line KP4, 96 hours, CellTiter Glo, read-out: IC50 μM KP4
# [4] = KP-4, Cell Line KP4, read-out: IC50
smiles,measurement,setting,value
COC(=O)c1ccc([C@@H]2c3[nH]c4ccccc4c3C[C@H](C)N2C(=O)CCl)cc1 [Example 77a],IC50,KP4; [3],0.5 to 1 µM
same,Whole Blood Stability % Remaining at 37° C. Mouse,[1]; 0 min,100.0%
same,Whole Blood Stability % Remaining at 37° C. Mouse,[1]; 30 min,0.0%
same,Whole Blood Stability % Remaining at 37° C. Mouse,[1]; 60 min,0.0%
same,Whole Blood Stability % Remaining at 37° C. Human,[2]; 0 min,100.0%
same,Whole Blood Stability % Remaining at 37° C. Human,[2]; 30 min,47.5%
same,Whole Blood Stability % Remaining at 37° C. Human,[2]; 60 min,14.8%
"COC(=O)[C@H]1Cc2c([nH]c3ccccc23)[C@H](c2ccc(C(=O)NC(C(=O)O)C(C)(C)C)cc2)N1C(=O)CCl (single isomer, unassigned) [Compound 10]",IC50,KP4; [3],0.5 to 1 µM
same,Whole Blood Stability % Remaining at 37° C. Mouse,[1]; 0 min,100.0%
same,Whole Blood Stability % Remaining at 37° C. Mouse,[1]; 30 min,82.2%
same,Whole Blood Stability % Remaining at 37° C. Mouse,[1]; 60 min,65.0%
same,Whole Blood Stability % Remaining at 37° C. Human,[2]; 0 min,100.0%
same,Whole Blood Stability % Remaining at 37° C. Human,[2]; 30 min,84.0%
same,Whole Blood Stability % Remaining at 37° C. Human,[2]; 60 min,54.3%
CN(C)C(=O)[C@H]1Cc2c([nH]c3ccccc23)[C@H](c2ccncc2)N1C(=O)CCl [Compound 50],IC50,KP4; [3],0.1 to 0.5 µM
CN(C)C(=O)[C@H]1Cc2c([nH]c3ccccc23)[C@H](c2ccc(S(=O)(=O)C3CC3)cc2)N1C(=O)CCl [Compound 70],IC50,KP4; [3],0.1 to 0.5 µM
same,Whole Blood Stability % Remaining at 37° C. Mouse,[1]; 0 min,100.0%
same,Whole Blood Stability % Remaining at 37° C. Mouse,[1]; 30 min,63.3%
same,Whole Blood Stability % Remaining at 37° C. Mouse,[1]; 60 min,36.6%
same,Whole Blood Stability % Remaining at 37° C. Human,[2]; 0 min,100.0%
same,Whole Blood Stability % Remaining at 37° C. Human,[2]; 30 min,46.0%
same,Whole Blood Stability % Remaining at 37° C. Human,[2]; 60 min,23.8%
COC(=O)[C@H]1Cc2c([nH]c3ccccc23)[C@H](c2ccc(C(=O)OCC3(C)CC3)cc2)N1C(=O)CCl [Compound 84],IC50,KP4; [3],< 0.01 µM
same,Whole Blood Stability % Remaining at 37° C. Mouse,[1]; 0 min,100.0%
same,Whole Blood Stability % Remaining at 37° C. Mouse,[1]; 30 min,0.0%
same,Whole Blood Stability % Remaining at 37° C. Mouse,[1]; 60 min,0.0%
same,Whole Blood Stability % Remaining at 37° C. Human,[2]; 0 min,100.0%
same,Whole Blood Stability % Remaining at 37° C. Human,[2]; 30 min,87.7%
same,Whole Blood Stability % Remaining at 37° C. Human,[2]; 60 min,58.3%
[2H]C([2H])(Cl)C(=O)N1[C@@H](c2ccc(S(=O)(=O)NC34CC5CC(CC(C5)C3)C4)cc2)c2[nH]c3ccccc3c2C[C@@H]1C(=O)OC [Compound 251],IC50,KP4; [4],0.0065 µM
COC(=O)[C@H]1Cc2c([nH]c3ccccc23)[C@H](c2ccc(C(=O)NCCN3CCOCC3)cc2)N1C(=O)CCl [Compound 27],IC50,KP4; [3],0.01 to 0.1 µM
same,Whole Blood Stability % Remaining at 37° C. Mouse,[1]; 0 min,100.0%
same,Whole Blood Stability % Remaining at 37° C. Mouse,[1]; 30 min,78.2%
same,Whole Blood Stability % Remaining at 37° C. Mouse,[1]; 60 min,73.2%
same,Whole Blood Stability % Remaining at 37° C. Human,[2]; 0 min,100.0%
same,Whole Blood Stability % Remaining at 37° C. Human,[2]; 30 min,63.9%
same,Whole Blood Stability % Remaining at 37° C. Human,[2]; 60 min,48.3%
CN(C)C(=O)[C@H]1Cc2c([nH]c3ccccc23)[C@H](c2ccc(C(=O)N3CCC(O)CC3)cc2)N1C(=O)CCl [Compound 45],IC50,KP4; [3],> 1 µM
same,Whole Blood Stability % Remaining at 37° C. Mouse,[1]; 0 min,100.0%
same,Whole Blood Stability % Remaining at 37° C. Mouse,[1]; 30 min,91.2%
same,Whole Blood Stability % Remaining at 37° C. Mouse,[1]; 60 min,81.5%
same,Whole Blood Stability % Remaining at 37° C. Human,[2]; 0 min,100.0%
same,Whole Blood Stability % Remaining at 37° C. Human,[2]; 30 min,71.4%
same,Whole Blood Stability % Remaining at 37° C. Human,[2]; 60 min,56.4%
C[C@H]1Cc2c([nH]c3ccccc23)[C@H](c2ccc([Si](C)(C)C)cc2)N1C(=O)CCl [Compound 106],IC50,KP4; [3],< 0.01 µM
COC(=O)[C@H]1Cc2c([nH]c3ccccc23)[C@H](c2ccc(C(=O)OCC3CC3)cc2)N1C(=O)CCl [Compound 75],IC50,KP4; [3],< 0.01 µM
same,Whole Blood Stability % Remaining at 37° C. Mouse,[1]; 0 min,100.0%
same,Whole Blood Stability % Remaining at 37° C. Mouse,[1]; 30 min,1.8%
same,Whole Blood Stability % Remaining at 37° C. Mouse,[1]; 60 min,0.9%
same,Whole Blood Stability % Remaining at 37° C. Human,[2]; 0 min,100.0%
same,Whole Blood Stability % Remaining at 37° C. Human,[2]; 30 min,68.1%
same,Whole Blood Stability % Remaining at 37° C. Human,[2]; 60 min,41.5%
CN(C)C(=O)[C@H]1Cc2c([nH]c3ccccc23)[C@H](c2ccc(S(C)(=O)=O)cc2)N1C(=O)CCl [Compound 59],IC50,KP4; [3],0.1 to 0.5 µM
same,Whole Blood Stability % Remaining at 37° C. Mouse,[1]; 0 min,100.0%
same,Whole Blood Stability % Remaining at 37° C. Mouse,[1]; 30 min,97.9%
same,Whole Blood Stability % Remaining at 37° C. Mouse,[1]; 60 min,65.6%
same,Whole Blood Stability % Remaining at 37° C. Human,[2]; 0 min,100.0%
same,Whole Blood Stability % Remaining at 37° C. Human,[2]; 30 min,48.9%
same,Whole Blood Stability % Remaining at 37° C. Human,[2]; 60 min,51.5%
C[C@H]1Cc2c([nH]c3ccccc23)[C@H](c2ccc(C(=O)N[C@]34CC5C[C@H](C[C@H](C5)C3)C4)cc2)N1C(=O)CCl [Compound 102],IC50,KP4; [3],< 0.01 µM
same,Whole Blood Stability % Remaining at 37° C. Mouse,[1]; 0 min,100.0%
same,Whole Blood Stability % Remaining at 37° C. Mouse,[1]; 30 min,87.2%
same,Whole Blood Stability % Remaining at 37° C. Mouse,[1]; 60 min,90.1%
same,Whole Blood Stability % Remaining at 37° C. Human,[2]; 0 min,100.0%
same,Whole Blood Stability % Remaining at 37° C. Human,[2]; 30 min,96.3%
same,Whole Blood Stability % Remaining at 37° C. Human,[2]; 60 min,75.6%
COC(=O)[C@H]1Cc2c([nH]c3ccccc23)[C@@H](c2ccc(C(=O)N3CCC(O)CC3)cc2)N1C(=O)CCl [Compound 32a],IC50,KP4; [3],> 1 µM
same,Whole Blood Stability % Remaining at 37° C. Mouse,[1]; 0 min,100.0%
same,Whole Blood Stability % Remaining at 37° C. Mouse,[1]; 30 min,0.0%
same,Whole Blood Stability % Remaining at 37° C. Mouse,[1]; 60 min,0.0%
same,Whole Blood Stability % Remaining at 37° C. Human,[2]; 0 min,100.0%
same,Whole Blood Stability % Remaining at 37° C. Human,[2]; 30 min,1.9%
same,Whole Blood Stability % Remaining at 37° C. Human,[2]; 60 min,0.9%
COC(=O)[C@H]1Cc2c([nH]c3ccccc23)[C@@H](c2ccc(S(=O)(=O)N(C)C)cc2)N1C(=O)CCl [Compound 23a],IC50,KP4; [3],> 1 µM
same,Whole Blood Stability % Remaining at 37° C. Mouse,[1]; 0 min,100.0%
same,Whole Blood Stability % Remaining at 37° C. Mouse,[1]; 30 min,83.8%
same,Whole Blood Stability % Remaining at 37° C. Mouse,[1]; 60 min,78.6%
same,Whole Blood Stability % Remaining at 37° C. Human,[2]; 0 min,100.0%
same,Whole Blood Stability % Remaining at 37° C. Human,[2]; 30 min,83.2%
same,Whole Blood Stability % Remaining at 37° C. Human,[2]; 60 min,72.7%
COC(=O)c1ccc([C@H]2c3[nH]c4ccccc4c3C[C@H](C(=O)O)N2C(=O)CCl)cc1 [Compound 3],IC50,KP4; [3],> 1 µM
same,Whole Blood Stability % Remaining at 37° C. Mouse,[1]; 0 min,100%
same,Whole Blood Stability % Remaining at 37° C. Mouse,[1]; 30 min,51.3%
same,Whole Blood Stability % Remaining at 37° C. Mouse,[1]; 60 min,23.6%
same,Whole Blood Stability % Remaining at 37° C. Human,[2]; 0 min,100%
same,Whole Blood Stability % Remaining at 37° C. Human,[2]; 30 min,43.0%
same,Whole Blood Stability % Remaining at 37° C. Human,[2]; 60 min,29.4%
C[C@H]1Cc2c([nH]c3ccccc23)[C@H](c2ccc(C3CC3)cc2)N1C(=O)CCl [Compound 108],IC50,KP4; [3],< 0.01 µM
C[C@H]1Cc2c([nH]c3ccccc23)[C@@H](c2ccc([Si](C)(C)C)cc2)N1C(=O)CCl [Compound 107],IC50,KP4; [3],> 1 µM
C[C@H]1Cc2c([nH]c3ccccc23)[C@@H](c2ccc(N3CCN(C)CC3)cc2)N1C(=O)OCl [Compound 105],IC50,KP4; [3],0.5 to 1 µM
COC(=O)c1ccc([C@H]2c3[nH]c4ccc(OC)cc4c3C[C@H](C(=O)OC)N2C(=O)CCl)cc1 [Compound 277],IC50,KP4; [4],0.036 µM
CN(C)C(=O)[C@H]1Cc2c([nH]c3ccccc23)[C@@H](c2ccc(C(=O)OC(C)(C)C)cc2)N1C(=O)CCl [Compound 21a],IC50,KP4; [3],0.1 to 0.5 µM
[2H]C([2H])(Cl)C(=O)N1[C@@H](c2ccc(C(=O)OC)cc2)c2[nH]c3ccccc3c2C[C@@H]1C(=O)OC [Compound 90],IC50,KP4; [3],< 0.01 µM
